Experimental data published in US10407467B2, “Polymyxin derivatives and their use in combination therapy together with different antibiotics” (priority 2013, dated 2019).
Bridge positions count the residues as written; N and C are the ends. Square brackets hold non-standard residues; d marks the D form. Peptide text beside a SMILES is read from it. ξ: configuration not given here. Thr(3ξ) = CC(O)[C@H](N)C(=O)O; Dab = NCC[C@H](N)C(=O)O; GABA = NCCCC(=O)O

Key:
[1] = rats, 8 mg/kg BID regimen, seven days, compared to Colistin at the same dose regimen
Experimental: After one week acclimatisation, male Sprague-Dawley rats were surgically prepared with a jugular cannula and were housed individually, as required, either in pre-assigned housing cages or metabolic cages. Colistin and the Example Compounds were prepared in saline.
Compounds were introduced via the jugular cannula twice a day 7 hours apart for seven days. Each dose was increased progressively for three days up to the top dose that was then administered until termination of the study. Twenty-four hour urine collection (on ice) was performed at pre-dose and on days 4 and 7. The dose regimen is set out in Table 10 below.
The doses in the table are indicated in mg drug base/kg (free base).
The activity in urine of the N-acetyl-beta-D-glucosaminidase (NAG) was determined spectrophotometrically using the NAG assay kit from Roche Applied Science. Biomarkers of kidney injury were determined using the Kidney Injury Panel II from the Multi-Spot® Assay System (Meso Scale Discovery).

Escherichia coli = assay: MIC, sole activity (no second agent); format: cell-based; settings: in the absence of Rifampicin
Procedure, shortened: (§1)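 First, isolated colonies grown 18-24 hours on Mueller-Hinton agar were suspended to 0.5 McFarland; next, up to four strains per pathogen were tested in duplicate in cation-adjusted MHB; finally, the lower concordant value or modal repeat value was reported against Polymyxin B.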

Klebsiella pneumoniae [2] = assay: MIC, sole activity (no second agent); format: cell-based; settings: in the absence of Rifampicin
Procedure, shortened: as §1

Pseudomonas aeruginosa = assay: MIC, sole activity (no second agent); format: cell-based; settings: in the absence of Rifampicin
Procedure, shortened: as §1

[3] = system: Klebsiella pneumoniae ATCC10031; settings: 10 mg/kg/day, neutropenic mice thigh infection
Experimental: At 1 h, the CFU count was determined from 5 mice and the remaining mice (five per group) were treated with a subcutaneous injection of the drug at +1 and 6 hr post-infection.
Twenty-four hours after infection, the mice were euthanized humanely. The muscle of the right thigh of each animal was harvested, homogenized, serially diluted and plated on Brain Heart Infusion agar+0.5% charcoal (w/v) for CFU determination. Decrease of the total CFU of right thigh as compared to control counts at 24 h post-infection was determined for each dose group.

Klebsiella pneumoniae [4] = assay: MIC, compound in combination with a second agent (broth microdilution); format: cell-based; settings: 1:1 (wt:wt) combination with Rifampicin, MIC = total drug concentration
Procedure, shortened: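 MIC = combined concentration of test compound plus partner agent, mixed at equal mass (1:1 w/w, salt form as used). Up to four strains per species; colonies adjusted to 0.5 McFarland. Run in duplicate; >2-fold disagreement invalidates the run.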

With `CC(C)C[C@@H]1NC(=O)[C@@H](Cc2ccccc2)NC(=O)[C@H](CCN)NC(=O)[C@@H](NC(=O)[C@H](CCN)NC(=O)[C@@H](NC(=O)CCCN)C(C)O)CCNC(=O)[C@H](C(C)O)NC(=O)[C@H](CCN)NC(=O)[C@H](CCN)NC1=O` (stereo partly shown) [Example 4, 4-Aminobutanoyl polymyxin B nonapeptide] (H-[GABA][Thr(3ξ)][Dab][Dab][Dab][dF]L[Dab][Dab][Thr(3ξ)]; lactam 4-C) the “levels of the renal biomarkers NAG, albumin and cystatin C in urine” value [1] was “significantly reduced levels”, the “MIC E. coli ATCC25922” value (Escherichia coli; strain ATCC25922) was 2 micrograms/mL and the “MIC E. coli NCTC9001” value (Escherichia coli; strain NCTC9001) was 8 micrograms/mL. For the same compound, the “MIC K. pneumoniae ATCC 4352” value (Klebsiella pneumoniae [2]; strain ATCC 4352) was 1 micrograms/mL, the “MIC K. pneumoniae ATCC-BAA2146” value (Klebsiella pneumoniae [2]; strain ATCC-BAA2146) was >32 micrograms/mL and the “MIC K. pneumoniae CCUG-59348” value (Klebsiella pneumoniae [2]; strain CCUG-59348) was >32 micrograms/mL. The “MIC K. pneumoniae NCTC-13438” value (Klebsiella pneumoniae [2]; strain NCTC-13438) was >32 micrograms/mL, the “MIC P. aeruginosa ATCC 27853” value (Pseudomonas aeruginosa; strain ATCC27853) was 0.25 micrograms/mL and the “MIC P. aeruginosa ATCCCRM-9027” value (Pseudomonas aeruginosa; strain ATCCCRM-9027) was 0.125 micrograms/mL. For the same compound, the “reduction in bacterial counts” value [3] was “approx. 2 log10”, the “MIC K. pneumoniae ATCC-BAA-2146” value (Klebsiella pneumoniae [4]; strain ATCC-BAA-2146) was 2 micrograms/mL and the “MIC K. pneumoniae CCUG-59348” value (Klebsiella pneumoniae [4]; strain CCUG-59348) was 16 micrograms/mL. For the same compound, the “MIC K. pneumoniae NCTC 13438” value (Klebsiella pneumoniae [4]; strain NCTC 13438) was 0.5 micrograms/mL.
